# Test results reported in the supplement of paper PMC10307832.
# Tests used:
# Assay in all cases: relative viability (nuclei count vs DMSO), 5 days (fraction); higher = more cells survive
# NCI-H1793 = tested on: NCI-H1793
# Summary of the method: (§1)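 After 5 days of treatment, lung cancer cells in 1536-well plates were fixed and stained in a single step (final 0.05% Triton X-100, 1% formaldehyde, 1 ug/ml Hoechst) and their nuclei counted on 4× images. Treatment had been applied by pin tool the day after seeding as one drug alone or as a fixed anchor-drug dose with five library-drug doses (not always all listed) in √10 steps. Relative viability is the nuclei count of treated wells divided by that of vehicle wells, and values are medians of duplicate plates.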
# BEN = tested on: BEN
# Summary of the method: as §1
# NCI-H1792 = tested on: NCI-H1792
# Summary of the method: as §1
# NCI-H727 = tested on: NCI-H727
# Summary of the method: as §1
# HCC-827 = tested on: HCC-827
# Summary of the method: as §1
# LCLC-97TM1 = tested on: LCLC-97TM1
# Summary of the method: as §1
# NCI-H1650 = tested on: NCI-H1650
# Summary of the method: as §1
# NCI-H322M = tested on: NCI-H322M
# Summary of the method: as §1
# RERF-LC-KJ = tested on: RERF-LC-KJ
# Summary of the method: as §1
# NCI-H2228 = tested on: NCI-H2228
# Summary of the method: as §1
# LCLC-103H = tested on: LCLC-103H
# Summary of the method: as §1
# NCI-H2405 = tested on: NCI-H2405
# Summary of the method: as §1
# NCI-H1944 = tested on: NCI-H1944
# Summary of the method: as §1
# NCI-H647 = tested on: NCI-H647
# Summary of the method: as §1
# LXF-289 = tested on: LXF-289
# Summary of the method: as §1
# SK-LU-1 = tested on: SK-LU-1
# Summary of the method: as §1
# NCI-H1395 = tested on: NCI-H1395
# Summary of the method: as §1
# NCI-H3122 = tested on: NCI-H3122
# Summary of the method: as §1
# 201T = tested on: 201T
# Summary of the method: as §1
# CAL-12T = tested on: CAL-12T
# Summary of the method: as §1
# NCI-H1437 = tested on: NCI-H1437
# Summary of the method: as §1
# NCI-H2087 = tested on: NCI-H2087
# Summary of the method: as §1
structure (smiles),measurement,setting,value
COc1nc(C)cnc1NS(=O)(=O)c1cccnc1-c1ccc(-c2nnco2)cc1 [Zibotentan] + CCNC(=O)c1noc(-c2cc(C(C)C)c(O)cc2O)c1-c1ccc(CN2CCOCC2)cc1 [Luminespib] (partner 0.01 µM),relative viability,NCI-H1793; first compound 0.08 µM,0.172
same,relative viability,NCI-H1793; first compound 0.253 µM,0.169
same,relative viability,NCI-H1793; first compound 0.8 µM,0.225
same,relative viability,NCI-H1793; first compound 2.53 µM,0.169
same,relative viability,BEN; first compound 0.08 µM,0.401
same,relative viability,BEN; first compound 0.253 µM,0.356
same,relative viability,BEN; first compound 0.8 µM,0.395
same,relative viability,BEN; first compound 2.53 µM,0.537
same,relative viability,NCI-H1792; first compound 0.08 µM,0.417
same,relative viability,NCI-H1792; first compound 0.253 µM,0.362
same,relative viability,NCI-H1792; first compound 0.8 µM,0.469
same,relative viability,NCI-H1792; first compound 2.53 µM,0.346
same,relative viability,NCI-H727; first compound 0.08 µM,0.289
same,relative viability,NCI-H727; first compound 0.253 µM,0.316
same,relative viability,NCI-H727; first compound 0.8 µM,0.83
same,relative viability,NCI-H727; first compound 2.53 µM,0.325
same,relative viability,HCC-827; first compound 0.08 µM,0.574
same,relative viability,HCC-827; first compound 0.253 µM,0.501
same,relative viability,HCC-827; first compound 0.8 µM,0.442
same,relative viability,HCC-827; first compound 2.53 µM,0.774
same,relative viability,LCLC-97TM1; first compound 0.08 µM,0.948
same,relative viability,LCLC-97TM1; first compound 0.253 µM,0.759
same,relative viability,LCLC-97TM1; first compound 0.8 µM,0.927
same,relative viability,LCLC-97TM1; first compound 2.53 µM,0.692
same,relative viability,NCI-H1650; first compound 0.08 µM,0.177
same,relative viability,NCI-H1650; first compound 0.8 µM,0.204
same,relative viability,NCI-H1650; first compound 2.53 µM,0.195
same,relative viability,NCI-H322M; first compound 0.08 µM,0.876
same,relative viability,NCI-H322M; first compound 0.253 µM,0.474
same,relative viability,NCI-H322M; first compound 0.8 µM,0.897
same,relative viability,NCI-H322M; first compound 2.53 µM,0.918
same,relative viability,RERF-LC-KJ; first compound 0.08 µM,1.3
same,relative viability,RERF-LC-KJ; first compound 0.253 µM,1.18
same,relative viability,RERF-LC-KJ; first compound 0.8 µM,1.44
same,relative viability,RERF-LC-KJ; first compound 2.53 µM,1.35
same,relative viability,NCI-H2228; first compound 0.08 µM,0.154
same,relative viability,NCI-H2228; first compound 0.253 µM,0.134
same,relative viability,NCI-H2228; first compound 0.8 µM,0.157
same,relative viability,NCI-H2228; first compound 2.53 µM,0.191
same,relative viability,LCLC-103H; first compound 0.08 µM,0.913
same,relative viability,LCLC-103H; first compound 0.253 µM,0.682
same,relative viability,LCLC-103H; first compound 0.8 µM,0.982
same,relative viability,LCLC-103H; first compound 2.53 µM,0.927
same,relative viability,NCI-H2405; first compound 0.08 µM,0.703
same,relative viability,NCI-H2405; first compound 0.253 µM,0.541
same,relative viability,NCI-H2405; first compound 0.8 µM,0.774
same,relative viability,NCI-H2405; first compound 2.53 µM,0.8
same,relative viability,NCI-H1944; first compound 0.08 µM,0.732
same,relative viability,NCI-H1944; first compound 0.253 µM,0.694
same,relative viability,NCI-H1944; first compound 0.8 µM,0.75
same,relative viability,NCI-H1944; first compound 2.53 µM,0.742
same,relative viability,NCI-H647; first compound 0.08 µM,0.244
same,relative viability,NCI-H647; first compound 0.253 µM,0.16
same,relative viability,NCI-H647; first compound 0.8 µM,0.185
same,relative viability,NCI-H647; first compound 2.53 µM,0.164
same,relative viability,LXF-289; first compound 0.08 µM,0.657
same,relative viability,LXF-289; first compound 0.253 µM,0.683
same,relative viability,LXF-289; first compound 0.8 µM,0.627
same,relative viability,LXF-289; first compound 2.53 µM,0.756
same,relative viability,SK-LU-1; first compound 0.08 µM,0.236
same,relative viability,SK-LU-1; first compound 0.253 µM,0.171
same,relative viability,SK-LU-1; first compound 0.8 µM,0.213
same,relative viability,SK-LU-1; first compound 2.53 µM,0.194
same,relative viability,NCI-H1395; first compound 0.08 µM,0.725
same,relative viability,NCI-H1395; first compound 0.253 µM,0.724
same,relative viability,NCI-H1395; first compound 0.8 µM,0.649
same,relative viability,NCI-H1395; first compound 2.53 µM,0.754
same,relative viability,NCI-H3122; first compound 0.08 µM,0.0904
same,relative viability,NCI-H3122; first compound 0.253 µM,0.112
same,relative viability,NCI-H3122; first compound 0.8 µM,0.0537
same,relative viability,NCI-H3122; first compound 2.53 µM,0.104
same,relative viability,201T; first compound 0.08 µM,1.11
same,relative viability,201T; first compound 0.253 µM,1.03
same,relative viability,201T; first compound 0.8 µM,1.14
same,relative viability,201T; first compound 2.53 µM,1.07
same,relative viability,CAL-12T; first compound 0.08 µM,0.598
same,relative viability,CAL-12T; first compound 0.253 µM,0.123
same,relative viability,CAL-12T; first compound 0.8 µM,0.415
same,relative viability,CAL-12T; first compound 2.53 µM,0.418
same,relative viability,NCI-H1437; first compound 0.08 µM,1.15
same,relative viability,NCI-H1437; first compound 0.253 µM,0.967
same,relative viability,NCI-H1437; first compound 0.8 µM,1.12
same,relative viability,NCI-H1437; first compound 2.53 µM,1.15
same,relative viability,NCI-H2087; first compound 0.08 µM,0.168
same,relative viability,NCI-H2087; first compound 0.253 µM,0.171
same,relative viability,NCI-H2087; first compound 0.8 µM,0.169
same,relative viability,NCI-H2087; first compound 2.53 µM,0.124
